Values quoted from earlier work, collected in US7217714B1, “CCR5 modulators” (Agouron Pharmaceuticals, Inc., priority 1998, dated 2007).

How the values were obtained:
[1] = tested on: CXCR4 dependent primary and lab-adapted HIV viruses; details: susceptible cultures
[2] = tested on: CCR5-tropic strains; details: Baba et al. PNAS 1999
[3] = tested on: primary HIV isolates

Molecule	suppression of replication of primary HIV isolates [3]	other results
c1cc(CN2CCCNCCNCCCNCC2)ccc1CN1CCCNCCNCCCNCC1 [AMD3100]		inhibition of infection by CXCR4 dependent HIV [1]: inhibit infection
Cc1ccc(-c2ccc3c(c2)C=C(C(=O)Nc2ccc(C[N+](C)(C)C4CCOCC4)cc2)CCC3)cc1.[Cl-] [TAK 779]		block of entry of CCR5-tropic strains [2]: blocks entry
SDF-1: "the chemokines RANTES, MIP-1α, MIP-1β, SDF-1 have been shown to suppress replication of primary HIV isolates"	suppress replication	
MIP-1β: "the macrophage inflammatory proteins (MIP) designated MIP-1α and MIP-1β" (protein, UniProt P13236 24-92, looked up) C-C motif chemokine 4: APMGSDPPTACCFSYTARKLPRNFVVDYYETSSLCSQPAVVFQTKRSKQVCADPSESWVQEYVYDLELN	suppress replication	
RANTES: "a protein which is regulated upon activation and is normal T-cell expressed and secreted (RANTES)" (protein, UniProt P13501 24-91, looked up) C-C motif chemokine 5: SPYSSDTTPCCFAYIARPLPRAHIKEYFYTSGKCSNPAVVFVTRKNRQVCANPEKKWVREYINSLEMS	suppress replication	
MIP-1α: "the macrophage inflammatory proteins (MIP) designated MIP-1α and MIP-1β" (protein, UniProt P10147 24-92, looked up) C-C motif chemokine 3: SLAADTPTACCFSYTSRQIPQNFIADYFETSSQCSKPGVIFLTKRSRQVCADPSEEWVQKYVSDLELSA	suppress replication	
